The values below come from paper PMC6891286, “Towards the Development of an In vivo Chemical Probe for Cyclin G Associated Kinase (GAK)” (Molecules, 2019).

The nature of data set [1]: mouse liver microsome metabolic stability. To be noted: for CLint scaled / half-life: mouse, mouse liver microsomes; for half-life: mean average, n = 2. As for the experimental part:
SGC-GAK-1 (1) was incubated with MLMs in the presence or absence of added NADPH, and the compound was quantified at various time points over an hour.
The metabolic stability of the 4-anilinoquinolines (8–13) were evaluated in MLMs (Table 1). Half-lives for metabolic clearance were normalized to propranolol in each experimental run to control for variations in the MLM preparations.

Data set [2] can be described thus: pharmacokinetic profiling in mice, oral dosing. In kind it is in vivo. To be noted: C57BL/6 mice, 10 mg/kg po; for Cmax / AUC(0-inf) / Tmax: 10 mg/kg. As for the experimental part: Pharmacokinetic profiling was performed by SAI Life Sciences (Hyderabad, India). […] Prior approval of the Institutional Animal Ethics Committee (IAEC) was obtained before initiation of the study. Healthy male C57BL/6 mice (8–12 weeks old) weighing between 20 and 35 g were procured from (Envigo Research Private Ltd., City, Hyderabad, India). Three mice were housed in each cage. […] Temperature and humidity were recorded by an automatically controlled data logger system. All animals were provided a laboratory rodent diet (Envigo Research Private Ltd., Hyderabad, India). Reverse osmosis water treated with ultraviolet light was provided ad libitum. Eighteen male mice were weighed and divided in to two groups (Group 1 and Group 2), with nine mice in each group. […] The dosing volume administered was 10 mL/kg for the oral route. […] Plasma samples were separated by centrifugation at 4000 rpm for 10 min and stored below −70 °C until bioanalysis. […] The plasma concentration-time data were then used for the pharmacokinetic analysis. A non-compartmental analysis module in Phoenix WinNonlin (Version 6.3, Certara USA Inc., Raleigh, NC, USA) was used to assess the pharmacokinetic parameters. Maximum concentration (Cmax) and time to reach the maximum concentration (Tmax) were the observed values. The areas under the concentration time curve (AUClast and AUCinf) were calculated by linear trapezoidal rule.

In the next data set the target is AAK1 (Homo sapiens, UniProt Q2M2I8). Kind of data set: NAK family TR-FRET binding displacement assay. To be noted: NAK family FRET screening.
AAK1, sequence (Q2M2I8 whole entry): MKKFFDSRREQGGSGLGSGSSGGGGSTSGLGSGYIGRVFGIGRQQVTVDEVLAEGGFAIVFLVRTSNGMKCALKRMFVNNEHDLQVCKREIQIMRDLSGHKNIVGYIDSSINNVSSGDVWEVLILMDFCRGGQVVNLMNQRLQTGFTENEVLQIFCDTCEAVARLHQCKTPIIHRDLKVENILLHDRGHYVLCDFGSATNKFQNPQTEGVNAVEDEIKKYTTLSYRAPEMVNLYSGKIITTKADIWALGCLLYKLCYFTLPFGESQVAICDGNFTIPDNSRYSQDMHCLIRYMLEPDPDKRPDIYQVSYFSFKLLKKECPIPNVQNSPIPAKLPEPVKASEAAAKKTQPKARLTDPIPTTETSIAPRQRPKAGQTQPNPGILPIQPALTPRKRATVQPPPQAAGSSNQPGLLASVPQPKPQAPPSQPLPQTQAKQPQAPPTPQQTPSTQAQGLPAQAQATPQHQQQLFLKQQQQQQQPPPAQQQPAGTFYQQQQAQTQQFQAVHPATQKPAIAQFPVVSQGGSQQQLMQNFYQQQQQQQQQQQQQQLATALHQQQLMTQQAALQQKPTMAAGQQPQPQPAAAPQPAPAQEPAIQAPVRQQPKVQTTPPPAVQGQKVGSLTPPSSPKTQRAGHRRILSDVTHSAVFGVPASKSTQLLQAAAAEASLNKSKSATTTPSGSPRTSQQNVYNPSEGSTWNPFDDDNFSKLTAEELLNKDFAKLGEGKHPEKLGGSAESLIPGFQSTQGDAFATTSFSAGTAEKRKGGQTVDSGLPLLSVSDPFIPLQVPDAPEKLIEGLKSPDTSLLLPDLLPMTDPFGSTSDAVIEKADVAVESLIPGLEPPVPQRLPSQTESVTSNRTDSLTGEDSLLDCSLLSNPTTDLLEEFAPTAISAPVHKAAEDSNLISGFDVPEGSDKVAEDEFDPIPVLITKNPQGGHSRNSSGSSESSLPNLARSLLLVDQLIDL
Another data set deals with STK16 (Homo sapiens, UniProt O75716). Kind of data set: NAK family TR-FRET binding displacement assay. To be noted: NAK family FRET screening; read-out: Binding displacement assay STK16 Ki.
STK16, sequence (O75716 whole entry): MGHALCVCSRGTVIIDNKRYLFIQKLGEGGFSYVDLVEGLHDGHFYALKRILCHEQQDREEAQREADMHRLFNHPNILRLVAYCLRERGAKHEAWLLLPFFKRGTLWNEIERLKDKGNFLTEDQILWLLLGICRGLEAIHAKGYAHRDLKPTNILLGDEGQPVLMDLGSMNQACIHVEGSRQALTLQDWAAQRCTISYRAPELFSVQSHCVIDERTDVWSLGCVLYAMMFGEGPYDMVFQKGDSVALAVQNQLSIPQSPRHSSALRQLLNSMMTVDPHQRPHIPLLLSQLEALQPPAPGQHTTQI
The next data set is described as follows: Kinetic Solubility. The format is physicochemical. To be noted: pH 7.4, aqueous buffer, kinetic from dmso stock, PBS pH7.4 (100 µM).
In the next data set the target is T1, GAK (Homo sapiens, UniProt O14976).
T1 sequence (O14976 1-1311): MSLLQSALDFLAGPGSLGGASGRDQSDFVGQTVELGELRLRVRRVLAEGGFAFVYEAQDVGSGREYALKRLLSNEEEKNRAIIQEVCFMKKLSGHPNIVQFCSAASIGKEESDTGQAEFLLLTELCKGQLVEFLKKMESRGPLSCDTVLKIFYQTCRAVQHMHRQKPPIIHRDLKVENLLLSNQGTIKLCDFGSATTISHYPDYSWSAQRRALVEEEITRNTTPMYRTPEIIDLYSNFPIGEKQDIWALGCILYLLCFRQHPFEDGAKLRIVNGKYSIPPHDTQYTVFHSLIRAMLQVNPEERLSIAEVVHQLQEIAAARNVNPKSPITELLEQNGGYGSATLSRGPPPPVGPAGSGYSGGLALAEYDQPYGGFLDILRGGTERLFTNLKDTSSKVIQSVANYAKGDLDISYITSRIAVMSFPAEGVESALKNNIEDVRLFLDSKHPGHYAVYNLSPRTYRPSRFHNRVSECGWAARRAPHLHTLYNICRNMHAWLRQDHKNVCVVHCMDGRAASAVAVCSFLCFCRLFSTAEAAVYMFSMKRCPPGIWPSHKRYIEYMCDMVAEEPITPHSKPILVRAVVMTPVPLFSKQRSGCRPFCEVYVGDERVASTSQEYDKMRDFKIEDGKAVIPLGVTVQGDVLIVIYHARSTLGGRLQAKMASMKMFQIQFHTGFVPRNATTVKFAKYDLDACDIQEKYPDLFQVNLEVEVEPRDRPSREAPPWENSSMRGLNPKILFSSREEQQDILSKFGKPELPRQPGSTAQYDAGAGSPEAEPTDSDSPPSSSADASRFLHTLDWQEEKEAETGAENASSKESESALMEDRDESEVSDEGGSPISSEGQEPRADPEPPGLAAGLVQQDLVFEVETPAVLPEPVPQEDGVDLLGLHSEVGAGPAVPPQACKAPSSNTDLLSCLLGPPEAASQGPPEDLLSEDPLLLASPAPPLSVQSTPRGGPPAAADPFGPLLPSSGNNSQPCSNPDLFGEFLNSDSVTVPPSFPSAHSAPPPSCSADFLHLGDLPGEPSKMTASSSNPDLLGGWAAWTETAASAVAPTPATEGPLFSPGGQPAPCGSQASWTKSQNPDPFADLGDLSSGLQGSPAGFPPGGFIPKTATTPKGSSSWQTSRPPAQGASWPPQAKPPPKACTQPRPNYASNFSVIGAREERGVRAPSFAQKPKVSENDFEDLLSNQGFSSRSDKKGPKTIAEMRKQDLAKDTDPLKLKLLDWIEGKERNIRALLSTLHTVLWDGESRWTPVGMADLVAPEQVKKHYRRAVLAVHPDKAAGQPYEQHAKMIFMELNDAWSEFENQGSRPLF
Also noted: method as in PMID 30768268, PMID 30973735. To be noted: cited from earlier work.

The subject of data set [3] is prostate cancer cells that contain constitutively-active splice variants of the androgen receptor. Also noted: method as in PMID 30973735. To be noted: cited from earlier work.
Where [4] appears, read: male, C57BL/6, mouse, plasma, po, 2 h pretreat 50 mpk ABT.
The mark [5] stands for this setting: male, C57BL/6, mouse, plasma, po, without ABT.

Where two headings read alike, the source gives them in different places.

As to `COc1cc(Nc2ccnc3ccc(Br)cc23)cc(OC)c1OC` [Compound 1], the “degradation in MLM” value in data set [1] (mouse liver microsomes in the absence of NADPH, over an hour) is listed as “No degradation”. For the same molecule, the CLint scaled in data set [1] (Clint (mL/min/kg) (+) ABT, (+) ABT) stood at 40 mL/min/kg; in data set [1] (Clint (mL/min/kg) (−) ABT, (−) ABT) it was 990 mL/min/kg. Besides, the half-life in data set [1] (T1/2 (min) (+) ABT, (+) ABT) is 130 min; in data set [1] (T1/2 (min) (−) ABT, (−) ABT), 5.7 min; in data set [1] (T1/2 (min), mouse liver microsomes with NADPH), 5.7 min; in data set [2] (male, mouse, plasma, without ABT, read-out: T1/2 in mice), < 60 min. The “Cmax” value in data set [2] (without ABT) was 97 ng/mL; in data set [2] (male, C57BL/6, mouse, plasma, po, 2 h pretreat 50 mpk ABT, read-out: Cmax) it was 650 ng/mL; in data set [2] (male, C57BL/6, mouse, plasma, po, without ABT, read-out: Cmax) it was < 100 ng/mL. In addition, the values for the AUC(0-inf) in data set [2] (setting [4]) and in data set [2] (setting [5]) were 1900 ng·h/mL and 98 ng·h/mL, respectively. For the same molecule, the Tmax in data set [2] (setting [4]) and in data set [2] (setting [5]) was 30 min throughout. Moreover, the values for the Ki on AAK1 and at STK16 were 53 µM and 51 µM, respectively. The solubility kinetic in the data set “Kinetic Solubility” (read-out: Kinetic Solubility µM) came to 57.8 µM; in “Kinetic Solubility” (read-out: Kinetic Solubility µg/mL), 22.5 µg/mL. Also, the “GAK DSF ΔTm” value on GAK is 7.7 °C. Also, in data set [3], the “viability of prostate cancer cells” value is given as “potently inhibits”.
